Source: patent US20220280594A1, “APPLICATION OF POLYPEPTIDE OR DERIVATIVE THEREOF” (CHENGDU HUITAI BIOMEDICINE CO., LTD., priority 2019, published 2022)
Ends that are not written are not given here. PEG = not defined here

Legend:
[1] = system: human lung squamous carcinoma cells (NCI-H226); assay: scratch assay, migration of NCI-H226 cells; type: cell-based; conditions: NCI-H226, 10 μM, 48 hours; control group 65.31 ± 3.19
How it was run: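 A straight scratch was made in confluent NCI-H226 monolayers (1-2×10^5 cells/well). Cells were then kept 48 h in 2% FBS medium with 10 μM polypeptide or PBS control, triplicate wells. Migration rate (%) = (original − current scratch width)/original width ×100, from imaged scratch widths.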

[2] = system: human pancreatic cancer cells (PANC-1); assay: transwell migration assay, PANC-1 cells; type: cell-based; conditions: PANC-1 transwell migration, 10 μM, 24 hours; control group 360 ± 60
How it was run: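 Serum-free PANC-1 cells placed in the upper transwell chamber with complete medium below; after 4-5 h, peptide added to the upper chamber at a final 10 μM. Migration ran 24 h at 37 °C; cells on the membrane underside were methanol-fixed, crystal violet-stained and counted by microscopy.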

[3] = system: human lung cancer cells (95D); assay: scratch assay, migration of 95D cells; type: cell-based; conditions: 10 μM, 48 hours, control group 55.3 ± 3.19
How it was run: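 Confluent 95D monolayers were scratched, washed with PBS and cultured 48 h in 2% FBS medium containing peptide (10 μM) or PBS control, in triplicate wells. Scratch width was measured on images; migration rate (%) = (original width − current width)/original width × 100.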

[4] = system: human thyroid cancer cells (FRO); assay: scratch assay, migration of FRO cells; type: cell-based; conditions: 10 μM, 48 hours, control group 60.34 ± 8.32
How it was run: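 FRO monolayers were scratched, washed, and cultured 48 h in 2% FBS medium with polypeptide derivatives at 10 μM or PBS control, three wells per group. Migration rate (%) = (original − current scratch width)/original width × 100, measured from images.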

[5] = system: human pancreatic cancer cells (PANC-1); assay: transwell invasion assay, PANC-1 cells; type: cell-based; conditions: PANC-1 transwell invasion, 10 μM, 24 hours; control group 727 ± 68
How it was run: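 Serum-free PANC-1 cells were seeded in matrigel-coated upper chambers with complete medium below. After 4-5 hours at 37° C., peptide was added at 10 μM final. Following 24 hours, invaded cells on the lower membrane surface were fixed, crystal violet-stained, imaged and counted against untreated controls.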

[6] = system: human lung cancer cells (A549) subcutaneous xenograft; assay: lung cancer subcutaneous xenograft animal model, intravenous injection; type: in vivo, mice (BALB/c-nu/nu); conditions: intravenous 60 mg/kg once every other day, 20 days; for Weight of tumor (g) (mean ± SD): control 2.53 ± 0.17; for Volume of tumor (mm^3) (mean ± SD): control 3373.26 ± 581.44
How it was run: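 Female BALB/c-nu/nu mice (4-6 weeks) inoculated subcutaneously with ~2×10^6 A549 cells; grouped once tumours exceeded 100 mm^3. Peptides given intravenously at 60 mg/kg for 20 days versus model control. Tumour weight and volume measured at dissection; body weight recorded every other day.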

Row | Substance | Migration rate (%) (mean ± SD, P) [1] | Number of cells (mean ± SD, P), migrated cells [2] | Migration rate (%) (mean ± SD, P) [3] | Migration rate (%) (mean ± SD, P) [4] | Number of cells (mean ± SD, P), invaded cells [5] | Weight of tumor (g) (mean ± SD) [6] | Volume of tumor (mm^3) (mean ± SD) [6]
1 | N30: SEQ ID NO: 1 with deletion of positions 1-5 and 15-18 and PEG modification at the carboxyl terminal (LAKENVTQD-{PEG}; reading uncertain) | 13.91 ± 7.36,*** % | 243 ± 33,* | 33.91 ± 3.36,** % | 5.16 ± 1.67,*** % | 237 ± 15,**** | 1.01 ± 0.34 | 1187.13 ± 246.31
2 | N31: SEQ ID NO: 1 with deletion of positions 3, 4, 11 and 15-18 and PEG modification at the carboxyl terminal (YRFLAKENTQD-{PEG}; reading uncertain) | 15.70 ± 8.17,*** % | 217 ± 40,** | 25.70 ± 3.17,** % | 9.77 ± 1.96,*** % | 365 ± 57,*** | 0.62 ± 0.2 | 1439.74 ± 546.27
3 | N32: SEQ ID NO: 1 with deletion of positions 1-3, addition of one amino acid and PEG modification at the carboxyl terminal (RFLAKENVTQDAEDNC-{PEG}; reading uncertain) | 19.47 ± 6.42,*** % | 219 ± 13,*** | 29.47 ± 3.42,** % | 7.83 ± 2.06,*** % | 251 ± 10,**** | 0.88 ± 0.38 | 1630.6 ± 424.84
4 | N33: SEQ ID NO: 1 with deletion of positions 1-5, addition of one amino acid and PEG modification at the carboxyl terminal (LAKENVTQDAEDNC-{PEG}; reading uncertain) | 40.73 ± 4.87,** % | 178 ± 14,*** | 30.73 ± 5.87,** % | 7.03 ± 2.02,*** % | 345 ± 27,*** | 0.57 ± 0.24 | 1699.23 ± 709.14
5 | N34: SEQ ID NO: 1 with A15R, addition of one amino acid at the carboxyl terminal, PEG modification at the amino terminal ({PEG}-YRVRFLAKENVTQDREDNC; reading uncertain) | 36.53 ± 4.35,** % | 248 ± 19,* | 13.53 ± 4.35,*** % | 8.74 ± 3.40,*** % | 346 ± 30,*** | 1.06 ± 0.15 | 1472.21 ± 914.38
6 | N35: SEQ ID NO: 1 with A15R, addition of one amino acid and PEG modification at the carboxyl terminal (YRVRFLAKENVTQDREDNC-{PEG}; reading uncertain) | 42.47 ± 5.12,** % | 151 ± 10,*** | 22.47 ± 5.12,*** % | 8.04 ± 2.90,*** % | 358 ± 23,*** | 0.75 ± 0.24 | 1097.54 ± 216.63
7 | N37: SEQ ID NO: 1 with addition of two amino acids to the carboxyl terminal and PEG modification at the amino terminal ({PEG}-YRVRFLAKENVTQDAEDNCT; reading uncertain) | 11.33 ± 9.49,*** % | 113 ± 11,*** | 27.76 ± 6.51,** % | 36.47 ± 5.69,* % | 359 ± 34,*** | 0.89 ± 0.39 | 915.97 ± 199.07
8 | N38: SEQ ID NO: 1 with one amino acid added at each terminal and PEG modification at the carboxyl terminal (FYRVRFLAKENVTQDAEDNC-{PEG}; reading uncertain) | 47.66 ± 6.39,* % | 116 ± 27,*** | 37.60 ± 3.67,** % | 19.23 ± 7.52,** % | 2.62 ± 21,**** | 0.71 ± 0.27 | 927.9 ± 205.31
9 | N39: SEQ ID NO: 1 with addition of two amino acids and PEG modification at the carboxyl terminal (YRVRFLAKENVTQDAEDNTC-{PEG}; reading uncertain) | 21.82 ± 5.54,*** % | 262 ± 13,* | 43.19 ± 4.82,* % | 36.51 ± 4.36,* % | 278 ± 16,**** | 0.98 ± 0.3 | 918.84 ± 288.77
10 | N40: SEQ ID NO: 1 with deletion of positions 1-5 and 15-18, PEG at the amino terminal, two amino acids added at the carboxyl terminal ({PEG}-LAKENVTQDRC; reading uncertain) | 17.00 ± 6.49,*** % | 264 ± 12,* | 36.23 ± 5.05,** % | 39.96 ± 4.95,* % | 273 ± 21,**** | 0.98 ± 0.36 | 997.42 ± 267.79
11 | N41: SEQ ID NO: 1 with addition of two amino acids at the amino terminal, deletion of position 18, PEG at the carboxyl terminal (FRYRVRFLAKENVTQDAED-{PEG}; reading uncertain) | 15.30 ± 8.69,*** % | 248 ± 22,* | 32.62 ± 3.79,** % | 40.10 ± 2.73,* % | 288 ± 38,**** | 0.84 ± 0.34 | 1075.33 ± 350.78
12 | N42: SEQ ID NO: 1 with deletion of positions 1-5 and 15-18, PEG at the amino terminal, one amino acid added at the carboxyl terminal ({PEG}-LAKENVTQDR; reading uncertain) | 17.46 ± 6.33,*** % | 236 ± 14,** | 35.42 ± 4.97,** % | 25.71 ± 2.79,** % | 399 ± 21,*** | 0.83 ± 0.31 | 1149.73 ± 346.36
13 | N43: SEQ ID NO: 1 with addition of one amino acid at the amino terminal, deletion of position 18, PEG at the carboxyl terminal (RYRVRFLAKENVTQDAED-{PEG}; reading uncertain) | 16.38 ± 7.71,*** % | 157 ± 15,*** | 30.38 ± 4.71,** % | 19.78 ± 4.60,** % | 251 ± 10,**** | 0.85 ± 0.14 | 1218.7 ± 190.78
14 | N45: SEQ ID NO: 1 with V11R, deletion of positions 1-5 and 15-18, PEG modification at the carboxyl terminal (LAKENRTQD-{PEG}; reading uncertain) | 23.76 ± 5.38,*** % | 135 ± 10,*** | 33.76 ± 5.38,** % | 24.22 ± 6.27,** % | 358 ± 23,*** | 0.97 ± 0.28 | 1204.87 ± 212.94
